# Measured values from USRE38551E1, “Anticonvulsant enantiomeric amino acid derivatives” (priority 1996, dated 2004).
# How the values were obtained:
# [1] = test system: maximal electroshock (MES) induced seizure; assay: maximal electroshock (MES) seizure test, mice (ip); assay type: in vivo; conditions: for MES, ED50 / PI protective index (TD50/MES ED50): mice; for MES, ED50 / ED50 / PI protective index (TD50/MES ED50): ip; for MES, ED50: at time of peak effect (hours in brackets); for ED50: Mus musculus; for Ratio to MES: i.p., Neurotox/MES (Table 6)
# Source text: (§1) Compounds were screened for anticonvulsant activity in both male albino Carthworth Farms No. 1 mice (ip route) and male albino Sprague Dawley rats [oral (po) route]. Activity was established using the electrical (maximal electroshock or MES) test. In the MES test, a drop of electrolyte solution with anesthetic (0.5% butacaine hemisulfate in 0.9% sodium chloride) was used in the eyes of the animals prior to positioning the corneal electrodes and delivery of current. […] Protection endpoints were defined as the abolition of the hind limb tonic extensor component of the induced seizure. In mice, effects of compounds on forced spontaneous motor activity were determined using the rotorod test. […] Normally under these conditions, mice maintain their balance almost indefinitely. In rats, motor impairment is assessed by observing for overt evidence of ataxia, abnormal gait and stance, and/or loss of placing response and muscle tone. In the mouse identification screening study all compounds were given at three dose levels (30, 100, 300 mg/kg) and two time periods (0.5 hours, 4 hours). Typically, in the MES seizures test one animal was tested at 30 mg/kg and 300 mg/kg, and three animals at 100 mg/kg. In the rotored toxicity test four animals were tested at 30 mg/kg, and 300 mg/kg, and eight animals at 100 mg/kg.
# (§2) The quantitative determination of the median effective (ED50) and toxic doses (TD50) was conducted at previously calculated times of peak effect. Groups of at least eight animals were tested using different doses of test compound until at least two points wee determined between 100 and 0% protection and minimal motor impairment.
# motor impairment = motor impairment (ataxia, gait, stance) observation, rats (po); assay type: in vivo; conditions: rat, po, at time of peak effect
# Source text: (§3) Compounds were screened for anticonvulsant activity in both male albino Carthworth Farms No. 1 mice (ip route) and male albino Sprague Dawley rats [oral (po) route]. Activity was established using the electrical (maximal electroshock or MES) test. In the MES test, a drop of electrolyte solution with anesthetic (0.5% butacaine hemisulfate in 0.9% sodium chloride) was used in the eyes of the animals prior to positioning the corneal electrodes and delivery of current. A 60 cycle alternating current was administered for 0.2 sec. in both species, 50 mA in mice and 150 mA in rats. Protection endpoints were defined as the abolition of the hind limb tonic extensor component of the induced seizure. In mice, effects of compounds on forced spontaneous motor activity were determined using the rotorod test. […] Normally under these conditions, mice maintain their balance almost indefinitely. In rats, motor impairment is assessed by observing for overt evidence of ataxia, abnormal gait and stance, and/or loss of placing response and muscle tone. In the mouse identification screening study all compounds were given at three dose levels (30, 100, 300 mg/kg) and two time periods (0.5 hours, 4 hours). Typically, in the MES seizures test one animal was tested at 30 mg/kg and 300 mg/kg, and three animals at 100 mg/kg. In the rotored toxicity test four animals were tested at 30 mg/kg, and 300 mg/kg, and eight animals at 100 mg/kg.
# as §2, with “impairment. The dose of candidate substance required to produce the defined end-point in 50% of the animals in each test and the 95% confidence interval was calculated.” for “impairment.”
# [2] = test system: maximal electroshock (MES) induced seizure; assay: maximal electroshock (MES) seizure test, rats (po); assay type: in vivo; conditions: for ED50 / PI protective index (TD50/MES ED50) / MES, ED50: po; for Ratio to MES: oral, Neurotox/MES (Table 6)
# Source text: as §1, §2
# [3] = test system: maximal electroshock (MES) induced seizure; assay: 5-day chronic treatment tolerance study (MES test); assay type: in vivo; conditions: rats, 5 daily doses of 48 mg/kg
# Description: Compound C, i.e., N-acetyl-D, L-phenylglycine N-benzylamide was subjected to 5-day chronic treatment on anticonvulsant activity (maximal electroshock). 3 groups of 8 animals each were treated as follows. One group was given the MES ED50 of the test drug for 5 days; the second group was given the requisite volume of the vehicle (0.04 ml/10 g body wt.) for 4 days and a single dose (MES ED50) of the test drug on day 5; and the third group was given the requisite volume of the vehicle daily for 5 days. At the time of peak effect of the candidate substance on day 5, all groups were subjected to the MES test and the number of animals protected recorded. Seizure components of the unprotected animals were timed to the nearest 10th of a second and the extensor/flexor (E/F) ratio, S.E., and p value determined. Since extensor duration decreases and flexor duration increases as a maximal seizure is attenuated, the E/F ratio provides a measure of seizure severity.
# liver microsomal system = assay: 7-day liver microsomal studies; assay type: in vivo, rats
# Description: Two of the three groups of animals subjected to the hexobarbital sleep time test (chronically treated and vehicle control groups) were continued on their respective original treatment regimen for two days (days 6 and 7) and 24 hours later (day 8) subjected to liver microsomal studies. The rats were decapitated and the livers perfused with 0.9% sodium chloride solution. The livers were removed, weighed, and homogenized in 0.25M sucrose. Microsomes were prepared and their drug metabolizing capabilities (microsomal protein yield; cytochrome P-450 concentration; p-nitroanisole O-demethylase and NADPH cytochrome c reductase activities; norbenzphetamine MI complex formation; and glucuronyl transferase, erythromycin demethylase, and ethylmorphine demethylase activities) measured (Arch. Biochem. Biophys. 143: 318-329, 1971).
# [4] = motor impairment (ataxia, gait, stance) observation, rats (po); assay type: in vivo; conditions: male, Sprague Dawley, in vivo, rat; for TD50: po, at time of peak effect, read-out: tox, TD50
# Source text: as §3
# as §2, with “impairment. The dose of candidate substance required to produce the defined end-point in 50% of the animals in each test and the 95% confidence interval was calculated.” for “impairment.”
# hexobarbital sleep time = hexobarbital sleep time test; assay type: in vivo; conditions: rats, 5 daily doses of 48 mg/kg
# Description: All rats subjected to the 5-day tolerance studies were maintained in their home cage for 24 hours and then subjected to the hexobarbital sleep time test (day 6). Each rat in each of the 3 groups was given 100 mg/kg of hexobarbital (i.p.) and the sleep time measured to the nearest minute. The mean sleep time and S.E. for each group were calculated.
# [5] = rotorod neurologic toxicity test, mice (ip); assay type: in vivo; conditions: male, ip; for TD50: Carthworth Farms No. 1, mouse, in vivo, mice, rotorod test, at time of peak effect, read-out: tox, TD50
# Source text: as §1
# as §2, with “impairment. The dose of candidate substance required to produce the defined end-point in 50% of the animals in each test and the 95% confidence interval was calculated.” for “impairment.”
# [6] = test system: motor impairment (rotorod test); assay: rotorod neurologic toxicity test, mice (ip); assay type: in vivo; conditions: for tox, TD50: mice, ip, rotorod test, at time of peak effect
# Source text: as §1
# as §2, with “impairment. The dose of candidate substance required to produce the defined end-point in 50% of the animals in each test and the 95% confidence interval was calculated.” for “impairment.”
# liver = liver toxicity evaluation of D-furyl derivative, oral gavage to rats; assay type: in vivo
# Description: Compound C, i.e., D-(−)-α-acetamido-N-benzyl-2-furanacetylamide was evaluated for liver toxicity using the procedures described hereinabove. More specifically, various dosages such as 25 mg/kg, 100 mg/kg, 500 mg/kg of the drug was administered by oral gavage to rats for a set period of time. The rats were housed separately. The rats were periodically viewed for mortality and moribundity. At the termination of the study, the surviving rats were anesthetized, and exsanguinated under anesthesia.
# [7] = rat, at time of peak effect, read-out: MES, ED50
# [8] = liver microsomes, rats, p.o., 48 mg/kg, Treated 7 Days
# [9] = rats, p.o., 48 mg/kg, Treated 7 Days
compound,measurement,setting,value
"COC(NC(C)=O)C(=O)NCc1ccccc1 (racemic) [compound 4, D,L-2-Acetamido-N-benzyl-2-methoxyacetamide]","MES, ED50",[1],98.30 mg/kg
"COCC(NC(C)=O)C(=O)NCc1ccccc1 (racemic) [compound 9, N-Benzyl 2-Acetamido-3-methoxypropionamide(racemic mixture)]","tox, TD50",motor impairment,386.8 [1] mg/kg
"CC(=O)NC(C(=O)NCc1ccccc1)c1ccccc1 (racemic) [compound 13, N-Acetyl-D,L-phenylglycine-N-benzylamide]",ED50,"[2]; Rattus norvegicus, read-out: RAT anticonvulsant ED50 MES",48.3 mg/kg
same,ED50,"[2]; Rattus norvegicus, Rats, p.o., TPE 4 hrs (Table 4 head), read-out: ED50",48 mg/kg
same,Ratio to MES,[2]; rat,20.7
same,PI protective index (TD50/MES ED50),[2]; rat,>20.7
same,ED50,[2]; [7],48.3 mg/kg
same,effect of chronic treatment on anticonvulsant activity,[3],does not affect
same,Cytochrome P-450,liver microsomal system; [8],0.71 ± 0.06 nmol/mg
same,Erythromycin demethylase,liver microsomal system; [8],0.64 ± 0.07 nmol/mg/min
same,Ethylmorphine demethylase,liver microsomal system; [8],6.75 ± 0.37 nmol/mg/min
same,Glucoronyl Transferase,liver microsomal system; [8],9.77 ± 0.23 nmol/mg/min
same,NADPH Cytochrome c reductase,liver microsomal system; [8],160.3 ± 5.2 nmol/mg/min
same,Norbenzphetamine MI Complex,liver microsomal system; [8],0.023 ± 0.003 nmol/mg/min
same,Total Protein,liver microsomal system; [8],31.7 ± 1.4 mg
same,p-nitroanisole O-demethylase,liver microsomal system; [8],0.82 ± 0.12 nmol/mg/min
same,Liver Pathology Report,"liver microsomal system; rat, oral, 48 mg/kg/day × 7 days",liver enzyme induction
same,Safety Ratio daily dose; MES,"liver microsomal system; rat, oral, 48 mg/kg/day × 7 days vs oral MES ED50",−1
same,induction of liver microsomal enzyme systems,"liver microsomal system; rats, chronic administration, 48 mg/kg, 7 days",induces some liver microsomal enzyme systems
same,Body Weight,liver microsomal system; [9],146.3 ± 3.8 g
same,Liver Weight,liver microsomal system; [9],8.54 ± 0.26 g
same,ED50,"[1]; read-out: MES, ED50",20.3 mg/kg
same,ED50,[1]; read-out: MOUSE anticonvulsant dose ED50 MES,20.3 mg/kg
same,PI protective index (TD50/MES ED50),[1],4.77
same,Ratio to MES,[1]; mouse,4.8
same,ED50,"[4]; oral (Table 6), read-out: RAT ED50 Neurotox",> 1000 mg/kg
same,TD50,[4],> 1000 mg/kg
same,effect of chronic treatment on hexobarbital sleep time,hexobarbital sleep time,does not affect
same,ED50,"[5]; Carthworth Farms No. 1, in vivo, mouse, i.p., rotorod test at peak effect (Table 6), read-out: MOUSE ED50 Neurotox",96.9 mg/kg
same,TD50,[5],96.9 mg/kg
"COC[C@@H](NC(C)=O)C(=O)NCc1cccc(F)c1 [Ex. 3, R-N-(3-Fluorobenzyl)2-Acetamide-3-Methoxypropionamide]",PI protective index (TD50/MES ED50),[2]; rat,>57.7
same,"MES, ED50","[2]; rat, at time of peak effect",6.9 [0.5] mg/kg
same,PI protective index (TD50/MES ED50),[1],6.7
same,"MES, ED50",[1],6.9 [0.25] mg/kg
same,"tox, TD50",motor impairment,>396 [0.5] mg/kg
same,"tox, TD50",[6],46.3 [0.25] mg/kg
"COC[C@@H](NC(C)=O)C(=O)NCc1ccc(F)cc1 [Ex. 4, (R)-N-(4-Fluorobenzyl)2-Acetamido-3-Methoxypropanamide]",ED50,[2]; [7],2.6 mg/kg
same,melting point,,144 to 145 °C
same,ED50,"[1]; read-out: MES, ED50",4.2 mg/kg
same,PI protective index (TD50/MES ED50),[1],6.6
same,TD50,[4],125 to 250 mg/kg
same,"tox, TD50",[6],27.8 [0.25] mg/kg
"CC(=O)N[C@H](C)C(=O)NCc1ccccc1 [compound 2, N-Acetyl-D-alanine-N′-benzylamide]",PI protective index (TD50/MES ED50),[2]; rat,>35.2
same,"MES, ED50","[2]; rat, at time of peak effect",28.4 [4] mg/kg
same,PI protective index (TD50/MES ED50),[1],3.9
same,"MES, ED50",[1],54.8 [0.5] mg/kg
same,"tox, TD50",[6],2.14 [0.5] mg/kg
"CC(=O)N[C@@H](C)C(=O)NCc1ccccc1 [compound 3, N-Acetyl-L-alanine-N′-benzylamide]",PI protective index (TD50/MES ED50),[1],1.5
same,"MES, ED50",[1],548 [0.5] mg/kg
same,"tox, TD50",[6],841 [0.5] mg/kg
"CC(=O)NC(C(=O)NCc1ccccc1)c1ccco1 (stereo not drawn) [compound 5, (D,L)-α-Acetamido-N-benzyl-2-furanacetamide]",PI protective index (TD50/MES ED50),[1],>3.9
same,"MES, ED50",[1],10.3 mg/kg
same,"tox, TD50",[6],˜40 mg/kg
"CC(=O)N[C@@H](C(=O)NCc1ccccc1)c1ccco1 [compound 6, (D)-(−)α-Acetamido-N-benzyl-2-furanacetamide]",RAT anticonvulsant ED50 MES,"[2]; rat, oral (Table 6)",1.97 mg/kg
same,Ratio to MES,[2]; rat,175
same,PI protective index (TD50/MES ED50),[1],>.2
same,"MES, ED50",[1],3.3 mg/kg
same,MOUSE anticonvulsant dose ED50 MES,"[1]; mouse, i.p. (Table 6)",3.3 mg/kg
same,Ratio to MES,[1]; mouse,7.2
same,Safety Ratio daily dose; MES,"liver; rat, oral, 25 mg/kg/day × 30 days vs oral MES ED50",12.7
same,safety ratio for histologic signs of liver toxicity (hepatocellular necrosis),liver; rats,12.7
same,hepatocellular necrosis,"liver; rats, 100 and 25 mg/kg, treated for 13 weeks",hepatocellular necrosis was evident
same,"tox, TD50",[6],23.8 mg/kg
same,MOUSE ED50 Neurotox,"[6]; mouse, i.p., rotorod test at peak effect (Table 6)",23.8 mg/kg
"CC(=O)N[C@H](C(=O)NCc1ccccc1)c1ccco1 [compound 7, (L)-(+)-α-Acetamido-N-benzyl-2-furanacetamide]","MES, ED50",[1],>25. mg/kg
same,"tox, TD50",[6],>200 mg/kg
"CC(=O)NC(CO)C(=O)NCc1ccccc1 (stereo not shown) [compound 8, N-Benzyl 2-Acetamidohydracrylamide]",melting point,,201 to 203 °C
same,ED50,"[1]; read-out: MES, ED50",100 to 300 mg/kg
same,TD50,[5],> 300 mg/kg
"COC[C@H](NC(C)=O)C(=O)NCc1ccccc1 [compound 11, (S)-N-Benzyl 2-Acetamido-3-methoxypropionamide]",ED50,[2]; [7],> 30 mg/kg
same,ED50,"[1]; read-out: MES, ED50",100 to 300 mg/kg
same,TD50,[4],> 30 mg/kg
same,TD50,[5],> 300 mg/kg
"CC(=O)N[C@H](CO)C(=O)NCc1ccccc1 [compound 12, (R)-N-Benzyl 2-Acetamidohydracylamide]",PI protective index (TD50/MES ED50),[1],>9.4
same,"MES, ED50",[1],53.4 [2] mg/kg
same,"tox, TD50",[6],>500 [2] mg/kg
